# According to US5001123A, “2,5-diaryl tetrahydrofurans and analogs thereof as PAF antagonists” (Merck & Co., Inc., priority 1989, dated 1991):
# Tested on: PAF specific receptor binding site, human platelet membranes
# Experiment: inhibition of the binding of [3H] N-methylcarbamoyl-PAF to human platelet membranes
# Conditions: trans configuration
# Protocol: The compounds of formula (I) inhibit PAF induced functions in both the cellular and tissue levels by changing the PAF binding to its specific receptor site. The ability of a compound of formula (I) to inhibit the PAF binding to its specific receptor binding site on rabbit or human platelet or PMN plasma membranes was measured by a recently developed assay.
# The inhibition of ^3 [H]-PAF or ^3 [H]N-methylcarbamoyl-PAF binding to the human or rabbit platelet or PMN plasma membrane by a PAF antagonist of formula (I) was determined by a method employing isotopic labeling and filtration techniques. Generally, a series of Tris buffered solutions of the selected antagonist at predetermined concentrations were prepared. […] Each washed residue was then suspended in 10 ml scintillation solution (Aquasol 2, New England Nuclear, Conn.) and the radioactivity was counted in a Packard Tri-Carb 460CD Liquid Scintillation System. Defining the counts from a test sample as "Total binding with antagonist"; the counts from the control sample C1, as "Total binding C1 "; and the counts from the control sample C2 as "non specific binding C2 ", the percent inhibition of each test antagonist can be determined by the following equations: [formula] […]
smiles,measurement,setting,value
"CCCOc1c(OCC(O)CN2CCOCC2)cc([C@@H]2CC[C@@H](c3cnc(OC)c(OC)c3)O2)cc1S(=O)(=O)CC(C)O (stereo partly drawn) [Example 3, trans-2-[3-(2-Hydroxypropyl)sulfonyl-4-n-propoxy-5-(3-1-morpholino-2-hydroxypropoxy)phenyl]-5-[5-(2,3-dimethoxy)pyridyl]tetrahydrofuran]",% inhibition of the binding of [3H] Nmethylcarbamoyl-PAF to human platelet membranes,3 nM,11%
same,% inhibition of the binding of [3H] Nmethylcarbamoyl-PAF to human platelet membranes,30 nM,39%
